Results as given in patent US8530413B2, “Heterocyclically substituted methoxyphenyl derivatives with an oxo group, processes for preparation thereof and use thereof as medicaments” (Sanofi, priority 2010, dated 2013).

Biological target: T1, GPCR GPR40 (Rattus norvegicus, UniProt Q8K3T4)
T1 construct: expressed in transfected cells; host or cells: HEK293
Test: In vitro FLIPR assay with recombinant cells which express the GPCR GPR40 (intracellular Ca2+)
Assay type: cell-based
Conditions: recombinant HEK293 cells expressing GPR40; Fluo-4 Ca2+ change; 100% = 10 μM linoleic acid
Experimental: In Vitro FLIPR Assay with Recombinant Cells which Express the GPCR GPR40
Function-testing assays were performed by means of the FLIPR technique (“Fluorescence Imaging Plate Reader”, Molecular Devices Corp.). For this purpose, agonist-induced changes were determined in the intracellular concentration of Ca^2+ in recombinant HEK293 cells which expressed the GPCR GPR40.
For the studies, cells were sown into 96-well microtiter plates (60 000 cells/well) and left to grow overnight. The medium was removed and the cells were incubated in buffer which contains the fluorescent dye Fluo-4. After this loading with dye, the cells were washed, test substance was added and changes were measured in the intracellular Ca^2+ concentration in the FLIPR instrument. Results were presented as the percentage change relative to the control (0%: no test substance added; 100%: 10 μM reference agonist linoleic acid added) and used to calculate dose/effect curves, and EC50 values were determined.

T1 sequence (Q8K3T4 whole entry): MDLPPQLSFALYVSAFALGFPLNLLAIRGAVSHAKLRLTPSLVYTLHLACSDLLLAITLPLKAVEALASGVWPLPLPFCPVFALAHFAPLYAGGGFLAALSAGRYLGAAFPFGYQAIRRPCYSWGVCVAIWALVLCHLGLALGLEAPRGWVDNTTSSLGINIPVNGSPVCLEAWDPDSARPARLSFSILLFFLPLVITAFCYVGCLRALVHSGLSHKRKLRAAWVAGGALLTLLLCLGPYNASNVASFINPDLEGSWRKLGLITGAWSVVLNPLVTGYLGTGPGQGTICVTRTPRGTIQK

| Compound | EC50 [nM] |
| --- | --- |
| CC#CC(CC(=O)O)c1ccc(OCN2C(=O)C(C)(C)c3cc(Br)ccc32)cc1 (stereo not drawn) [Example 1, 3-[4-(5-Bromo-3,3-dimethyl-2-oxo-2,3-dihydroindol-1-ylmethoxy)phenyl]hex-4-ynoic acid] | 110 |
| CC#CC(CC(=O)O)c1ccc(OCN2C(=O)C(C)(C)c3ccc(Br)cc32)cc1 (stereo not drawn) [Example 2, 3-[4-(6-Bromo-3,3-dimethyl-2-oxo-2,3-dihydro-indol-1-ylmethoxy)phenyl]hex-4-ynoic acid] | 4610 |
| CC#CC(CC(=O)O)c1ccc(OCN2C(=O)C(C)(C)c3cc(C(F)(F)F)ccc32)cc1 (stereo not drawn) [Example 3, 3-[4-(3,3-Dimethyl-2-oxo-5-trifluoromethyl-2,3-dihydroindol-1-ylmethoxy)phenyl]hex-4-ynoic acid] | 130 |
| CC#CC(CC(=O)O)c1ccc(OCN2C(=O)C(C)(C)Oc3cc(Br)ccc32)cc1 (stereo not drawn) [Example 4, 3-[4-(7-Bromo-2,2-dimethyl-3-oxo-2,3-dihydrobenzo[1,4]oxazin-4-ylmethoxy)phenyl]hex-4-ynoic acid] | 280 |
| CC#CC(CC(=O)O)c1ccc(OCN2C(=O)C(CC)(CC)c3cc(Br)ccc32)cc1 (stereo not drawn) [Example 5, 3-[4-(5-Bromo-3,3-diethyl-2-oxo-2,3-dihydroindol-1-ylmethoxy)phenyl]hex-4-ynoic acid] | 180 |
| CC#CC(CC(=O)O)c1ccc(OCN2C(=O)CC(C)(C)c3cc(Br)ccc32)cc1 (stereo not drawn) [Example 6, 3-[4-(6-Bromo-4,4-dimethyl-2-oxo-3,4-dihydro-2H-quinolin-1-ylmethoxy)phenyl]hex-4-ynoic acid] | 440 |
| CC#CC(CC(=O)O)c1ccc(OCn2c(=O)sc3ccccc32)cc1 (stereo not drawn) [Example 7, 3-[4-(2-Oxobenzothiazol-3-ylmethoxy)phenyl]hex-4-ynoic acid] | 50 |
| CC#CC(CC(=O)O)c1ccc(OCN2C(=O)C(C)(C)Oc3ccccc32)cc1 (stereo not drawn) [Example 8, 3-[4-(2,2-Dimethyl-3-oxo-2,3-dihydrobenzo[1,4]oxazin-4-ylmethoxy)phenyl]hex-4-ynoic acid] | 60 |
| CC#CC(CC(=O)O)c1ccc(OCN2C(=O)C(C)(C)Oc3cccnc32)cc1 (stereo not drawn) [Example 9] | 350 |
